In PMC5319746, “Phospholipid binding to the FAK catalytic domain impacts function” (PLoS ONE, 2017):
Like-named read-outs stand apart in the source and are kept apart here.

Key:
[1] = molecular target: T1, wild type avian FAK catalytic domain (GST fusion protein) (Gallus gallus, UniProt Q00944); test: Fluorescence anisotropy binding of BODIPY-labeled C6 phosphoinositides to wild type catalytic domain; conditions: for Binding to wild type catalytic domain compared with the PI control (ANOVA, Tukey's posttest): anisotropy at 100 and 200 μM protein
T1 construct: the catalytic domain of FAK was expressed as a GST fusion protein; made in house; host or cells: Escherichia coli BL21 (Codon Plus)
T1 sequence (Q00944 422-680 limits assumed): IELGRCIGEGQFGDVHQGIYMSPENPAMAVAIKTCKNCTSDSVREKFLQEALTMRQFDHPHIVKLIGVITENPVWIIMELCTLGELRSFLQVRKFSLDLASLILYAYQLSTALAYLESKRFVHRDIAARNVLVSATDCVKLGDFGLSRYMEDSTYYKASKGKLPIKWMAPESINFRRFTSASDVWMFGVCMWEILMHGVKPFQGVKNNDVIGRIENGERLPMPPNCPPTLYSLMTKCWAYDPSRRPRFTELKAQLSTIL
Protocol: (§1) For anisotropy experiments purified GST fusion proteins were incubated with BODIPY (dipyrromethene boron difluoride)-labeled phosphoinosotides with C6-acyl chains (Echelon). Increasing concentrations of purified protein were added to 12.5 nM fluorescent phosphoinositide in buffer containing 20 mM HEPES [pH7.5], 150 mM NaCl, and 5 mM β-mercaptoethanol. Anisotropy measurements were taken at 37°C using a Flourlog spectroflourometer equipped with Glan-Thompson polarizers with FluorEssence software (HORIBA Jobin Yvon). Specific binding of the catalytic domain was determined by subtraction of binding of GST alone. Binding curves and dissociation constants were determined using the Prism 5.0 statistical analysis software (GraphPad).
(§2) PI(4,5)P2 binding was further validated using fluorescence anisotropy. GST and the GST catalytic domain of FAK were incubated with BODIPY-TMR labeled short acyl chain (C6) PI or PI(4,5)P2 and anisotropy measured.
To test the specificity of the lipid interaction, the binding of wild type and RK5A GST-fusion proteins to phosphatidylinositol, PI(4)P, PI(4,5)P2, and PI(3,4,5)P3 was analyzed. Purified GST catalytic domain fusion proteins were titrated into a solution of BODIPY-labeled phospholipids with C6-acyl chains, and anisotropy was measured. Phosphatidylinositol with C6-acyl chains and purified GST were used as controls. Differences in anisotropy of each BODIPY-labeled phospholipid at 100 and 200 μM of each protein were compared by ANOVA and a Tukey’s posttest (S1 Table). […] To calculate binding affinities, anisotropy was plotted against protein concentration and binding to GST was subtracted as background binding. […] To determine if the observed interaction with the short acyl chain PI(4,5)P2 required the basic residues implicated in binding to PI(4,5)P2-containing vesicles, the RK5A mutant was analyzed.

[2] = molecular target: T2, FAK catalytic domain R508A/R514A/K515A mutant (GST fusion protein) (Gallus gallus, UniProt Q00944, K515A/R508A/R514A); conditions: BODIPY-labeled C6 lipid, Fig 7, read-out: Kd for binding (specific binding, GST subtracted)
T2 construct: mutations were engineered into the GST-catalytic domain construct; made in house; host or cells: Escherichia coli BL21 (Codon Plus)
T2 sequence (Q00944 422-680 R508A/R514A/K515A limits assumed): as the sequence (Q00944 422-680 limits assumed) above, with R87A, R93A, K94A counted along it
Description: (§3) Short acyl chain (C6) BODIPY labeled PI(4,5)P2, was chosen to assess the ability of these mutants to bind phospholipids using fluorescence anisotropy.

[3] = molecular target: T3, FAK catalytic domain K621A/K627A mutant (GST fusion protein) (Gallus gallus, UniProt Q00944, K621A/K627A); conditions: BODIPY-labeled C6 lipid, Fig 7, read-out: Kd for binding (specific binding, GST subtracted)
T3 construct: mutations were engineered into the GST-catalytic domain construct; made in house; host or cells: Escherichia coli BL21 (Codon Plus)
T3 sequence (Q00944 422-680 K621A/K627A limits assumed): as the sequence (Q00944 422-680 limits assumed) above, with K200A, K206A counted along it
Description: as §3

[4] = molecular target: T4, FAK catalytic domain RK5A mutant (GST fusion protein) (Gallus gallus, UniProt Q00944, K515A/K621A/K627A/R508A/R514A); test: Fluorescence anisotropy binding of BODIPY-labeled C6 phosphoinositides to RK5A mutant; design: species or system avian
T4 construct: This GST mutant catalytic domain fusion protein was found in the supernatant; made in house; host or cells: Escherichia coli BL21 (Codon Plus)
T4 sequence (Q00944 422-680 R508A/R514A/K515A/K621A/K627A limits assumed): as the sequence (Q00944 422-680 limits assumed) above, with R87A, R93A, K94A, K200A, K206A counted along it
Protocol: as §1, §2
To test the specificity of the lipid interaction, the binding of wild type and RK5A GST-fusion proteins to phosphatidylinositol, PI(4)P, PI(4,5)P2, and PI(3,4,5)P3 was analyzed. Purified GST catalytic domain fusion proteins were titrated into a solution of BODIPY-labeled phospholipids with C6-acyl chains, and anisotropy was measured. Phosphatidylinositol with C6-acyl chains and purified GST were used as controls. […]

[5] = molecular target: T5, FAK catalytic domain R508A/K621A mutant (GST fusion protein) (Gallus gallus, UniProt Q00944, K621A/R508A); conditions: BODIPY-labeled C6 lipid, Fig 7, read-out: Kd for binding (specific binding, GST subtracted)
T5 construct: mutations were engineered into the GST-catalytic domain construct; made in house; host or cells: Escherichia coli BL21 (Codon Plus)
T5 sequence (Q00944 422-680 R508A/K621A limits assumed): as the sequence (Q00944 422-680 limits assumed) above, with R87A, K200A counted along it
Description: as §3

[6] = wild type catalytic domain, lipid specificity experiment, Fig 8B, read-out: Kd of the wild type catalytic domain for each phosphatidylinositol phosphate

Specific binding (in words) ([1]; wild type catalytic domain, anisotropy, GST subtracted) | Kd [1, 6] [µM] | Binding to wild type catalytic domain compared with the PI control (ANOVA, Tukey's posttest) [1] | Kd [2] [µM] | Kd [3] [µM] | Kd ([4]; BODIPY-labeled C6 lipid, Fig 7 experiment, read-out: Kd for binding (specific binding, GST subtracted)) [µM] | Specific binding (in words) ([4]; anisotropy, GST subtracted) | Kd [5] [µM] | Kd ([1]; wild type catalytic domain, BODIPY-labeled C6 lipid 12.5 nM, 37°C, Fig 7 experiment, read-out: Kd for binding (specific binding, GST subtracted)) [µM] | Substance
did not specifically bind | > 200 | – | – | – | – | – | – | – | phosphatidylinositol [PI]
– | 16 ± 9.2 | significant | – | – | – | – | – | – | PI(3,4,5)P3
– | 12.9 ± 2.3 | significant | 16.4 ± 3.2 | 20.8 ± 2.7 | > 200 | no specific binding | > 200 | 15.7 ± 6.5 | Phosphatidylinositol-4,5-bisphosphate [PI(4,5)P2]

Substance | Specific binding (in words) ([1]; wild type catalytic domain, anisotropy, GST subtracted) | Kd [1, 6] [µM] | Binding to wild type catalytic domain compared with the PI control (ANOVA, Tukey's posttest) [1] | Kd [2] [µM] | Kd [3] [µM] | Kd ([4]; BODIPY-labeled C6 lipid, Fig 7 experiment, read-out: Kd for binding (specific binding, GST subtracted)) [µM] | Specific binding (in words) ([4]; anisotropy, GST subtracted) | Kd [5] [µM] | Kd ([1]; wild type catalytic domain, BODIPY-labeled C6 lipid 12.5 nM, 37°C, Fig 7 experiment, read-out: Kd for binding (specific binding, GST subtracted)) [µM]
PI(4)P | – | 11.7 ± 13.7 | approached, but did not reach significance | – | – | – | – | – | –
